These results are taken from PMC5220080, “Modulating Beta-Cardiac Myosin Function at the Molecular and Tissue Levels” (Frontiers in Physiology, 2017).

The target of experiment [1] is T1, human beta-cardiac myosin subfragment 1 (M2β-S1) (Homo sapiens, UniProt P12883). The experiment in a line: actin-activated ATPase (NADH-linked assay); also in vitro motility (IC50 […]). More on the design: gene MYH7; subfragment 1, amino acids 1–843, N-terminal FLAG tag, C-terminal Avi tag. The experiment is classed as biochemical.
The target in experiment [2] is T2, skeletal muscle heavy meromyosin (Sk HMM).
T2 construct: heavy meromyosin, prepared from rabbit psoas muscle (Results text says chicken)
The experiment is described as above. The experiment is classed as biochemical.

Experiment [3] concerns the target T1, human beta-cardiac myosin subfragment 1 (M2β-S1). The experiment in a line: stopped-flow mant fluorescence, release from acto-M2β-S1 on mixing with ATP (rate constant without pN-Bleb). The class given is binding. More on the design: gene MYH7; subfragment 1, amino acids 1–843, N-terminal FLAG tag, C-terminal Avi tag; with actin. As to conditions: read-out: stopped-flow mant fluorescence, release from acto-M2β-S1 on mixing with ATP (rat).

T1 sequence (P12883 1-843): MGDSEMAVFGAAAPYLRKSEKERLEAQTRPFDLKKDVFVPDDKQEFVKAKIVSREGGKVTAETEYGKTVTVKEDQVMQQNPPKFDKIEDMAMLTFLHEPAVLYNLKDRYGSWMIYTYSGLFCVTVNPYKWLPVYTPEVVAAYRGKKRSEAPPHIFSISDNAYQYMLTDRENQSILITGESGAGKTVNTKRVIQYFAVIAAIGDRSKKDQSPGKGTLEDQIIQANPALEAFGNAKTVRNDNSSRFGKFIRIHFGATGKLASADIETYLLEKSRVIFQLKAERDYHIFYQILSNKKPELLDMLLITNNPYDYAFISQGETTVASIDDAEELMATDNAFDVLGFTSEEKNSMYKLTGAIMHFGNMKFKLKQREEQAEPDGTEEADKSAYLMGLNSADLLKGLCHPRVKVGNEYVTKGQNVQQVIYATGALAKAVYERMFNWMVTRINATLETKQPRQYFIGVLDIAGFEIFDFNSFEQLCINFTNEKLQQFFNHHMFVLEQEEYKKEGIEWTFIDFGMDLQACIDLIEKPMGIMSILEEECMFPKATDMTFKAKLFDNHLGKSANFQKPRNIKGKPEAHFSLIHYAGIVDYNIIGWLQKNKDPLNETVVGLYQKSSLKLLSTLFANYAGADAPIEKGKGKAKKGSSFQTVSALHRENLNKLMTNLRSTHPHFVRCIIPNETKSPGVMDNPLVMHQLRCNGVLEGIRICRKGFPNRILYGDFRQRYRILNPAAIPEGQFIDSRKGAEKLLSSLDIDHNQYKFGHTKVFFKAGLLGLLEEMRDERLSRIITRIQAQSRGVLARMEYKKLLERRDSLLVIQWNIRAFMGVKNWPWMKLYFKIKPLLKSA

As for `Cc1ccc2c(c1)C(=O)[C@]1(O)CCN(c3ccc([N+](=O)[O-])cc3)C1=N2` [pN-Bleb, para-Nitroblebbistatin], the concentration for half-maximal inhibition (IC50) (as a rule, the concentration that gives 50% inhibition) in experiment [1] amounted to 12.3 ± 1.8 µM; in experiment [2] it was 0.43 ± 0.11 µM.
On to `CNc1ccccc1C(=O)O[C@H]1C[C@H](n2cnc3c(N)ncnc32)O[C@@H]1COP(=O)(O)OP(=O)(O)O`, for which, in experiment [3], the koff stood at 229 ± 6.5 s⁻¹.
